{
  "source": "patent US7019156B2",
  "about": "“Tumor inhibiting gallium compounds” (Faustus Forschungs Cie. Translational Cancer Research GmbH, priority 2001, dated 2006)",
  "format_in_all_cases": "cell-based",
  "key": {"mammary carcinomas": {"test_system": "mammary carcinomas", "experiment": "Tumor-inhibiting activity, selectivity for tumor types"}, "prostrate carcinomas": {"test_system": "prostrate carcinomas", "experiment": "Tumor-inhibiting activity, selectivity for tumor types"}, "[1]": {"test_system": "macrocellular bronchial carcinomas", "experiment": "Tumor-inhibiting activity, selectivity for tumor types"}, "[2]": {"test_system": "stomach carcinoma xenograft", "experiment": "Tumor-inhibiting activity on xenograft", "details": "compared with IC50 <0.003 mg/ml tumor types"}, "melanoma xenograft": {"test_system": "melanoma xenograft", "experiment": "Tumor-inhibiting activity on xenograft", "details": "compared with IC50 <0.003 mg/ml tumor types"}, "[3]": {"test_system": "ovarian (OVCAR3) cell line", "experiment": "Tumor-inhibiting activity on cell line", "details": "compared with IC50 <0.003 mg/ml tumor types"}, "[4]": {"test_system": "parvicellular bronchial carcinoma cell line (DMS 114)", "experiment": "Tumor-inhibiting activity on cell line", "details": "compared with IC50 <0.003 mg/ml tumor types"}, "[5]": {"test_system": "renal-cell carcinoma xenografts", "experiment": "Tumor-inhibiting activity on xenografts", "details": "one of two renal-cell carcinoma xenografts"}},
  "data": [
    {"substance": "bis(2-acetylpyridine-4,4-dimethyl thiosemicarbazonato-N1, N2,S)gallium(III) tetrachlorogallate(III)", "values": [
      {"measurement": "IC50", "setting": "mammary carcinomas", "value": "< 3", "unit": "µg/mL"},
      {"measurement": "IC50", "setting": "prostrate carcinomas", "value": "< 3", "unit": "µg/mL"},
      {"measurement": "IC50", "setting": "[1]", "value": "< 3", "unit": "µg/mL"},
      {"measurement": "tumor-inhibiting effect", "setting": "[2]", "value": "Comparable effects"},
      {"measurement": "tumor-inhibiting effect", "setting": "melanoma xenograft", "value": "Comparable effects"},
      {"measurement": "tumor-inhibiting effect", "setting": "[3]", "value": "Comparable effects"},
      {"measurement": "tumor-inhibiting effect", "setting": "[4]", "value": "Comparable effects"},
      {"measurement": "tumor-inhibiting activity", "setting": "[5]", "value": "above-average activity"}
    ]}
  ]
}
